Source: patent US8828678B2, “Self-immolative probes for enzyme activity detection” (Enzo Life Sciences, Inc., priority 2010, dated 2014)

What was measured:
hypoxic HeLa cells = assay: Detection of hypoxia with hypoxia markers using fluorescence microscopy; format: cell-based, human; conditions: 5 μM, 3.5 h, chemical induction of hypoxia (CoCl2, DFO, DMOG) or anoxic treatment, FITC filter
Method: The human cervical adenocarcinoma epithelial cell line HeLa, U-2 OS human bone osteosarcoma cell line and hamster ovary CHO K1 cell line were obtained from ATTC. HeLa cells were routinely cultured in Eagle's Minimum Essential Medium with low glucose (ATCC), supplemented with 10% fetal bovine serum (ATCC) and 100 U/ml penicillin, 100 μg/ml streptomycin (Sigma-Aldrich, St. Louis, Mo.). U-2 OS cells were routinely cultured in McCoy's 5a Modified Medium (ATCC), supplemented with 10% fetal bovine serum heat (ATCC) and 100 U/ml penicillin+100 μg/ml streptomycin (Sigma-Aldrich). […]
The day before the experiment, the cells were seeded on 4-well microscope slides (Cel-Line™ Brand, Portsmouth, N.H.) at a density 1×10^4 cells/well (2×10^4 cells/cm^2). […] Post-treatment, the slides were washed twice with PBS, coverslipped and visualized using an Olympus BX-51 fluorescence microscope (FITC filter set, 490ex/525em).
In parallel, the hypoxia cellular state was detected using the hypoxia detecting reagent pimonidazole (Varia et al., 1998; Young, 1977). […] Slides were stained with a 1:100 dilution of FITC-MAb1 against pimonidazole (HP-1 kit from Hypoxyprobe) for 45 min at 4° C., washed twice with PBS, coverslipped and visualized using an Olympus BX-51 fluorescence microscope equipped with an FITC filter set (490ex/525em). […]

HeLa cells = assay: Combined detection of hypoxia and redox status in live cells by fluorescent microscopy; format: cell-based, human; conditions: for superoxide production (superoxide detection reagent staining) in treated HeLa cells: 0.2 mM CoCl2, 0.2 mM DFO or 1 mM DMOG, 3.5 h
Method: HeLa and U-2 OS cells were cultured as described in Example 7. Stock solutions of CD-1 and CD-5 and various hypoxia inducers were prepared and stored as described in Examples 7 and 8. Additionally, 5 mM stock solutions (5000×) of 2′,7′-dichloro-fluorescein diacetate (DCFDA, an indicator of global ROS generation) and dihydroethidium (DHE, specific indicator of superoxide generation) were made in anhydrous DMF. DMSO was avoided, since this solvent is a hydroxyl radical scavenger and its presence may affect ROS/RNS production in cellular systems. The following stocks of ROS inducers were prepared in DMF: 10 mM pyocyanin (general ROS generating compound, 100×), 20 mM antimycin A (general ROS inducer, 400×), 50 mM pyrogallol (a superoxide radical generator, 1000×), 1 mM t-butyl hydroperoxide (TBHP, peroxide radical inducer, 10,000×). ROS probes and inducers were aliquoted and stored at −80° C.
The day before the experiment, the cells were seeded on 4-well microscope slides (Cel-Line™ Brand, Portsmouth, N.H.) at a density 1×10^4 cells/well (2×10^4 cells/cm^2). On the day of the experiment, the cells were preloaded with both hypoxia probe (5 μM final concentration in cell culture medium) and ROS detecting reagent with suitable spectral characteristics. Two ROS-detecting probes, DCFDA and DHE, were used in a pilot experiment in conjunction with hypoxia self-immolative probes. The hydrolyzed product of DCFDA, DCFH, is considered to be a general indicator of ROS, reacting with H2O2 (in the presence of peroxidases), ONOO^−, lipid hydroperoxides, and hydroxyl radicals. The oxidized product can be detected by strong fluorescence emission at around 525 nm when excited at around 488 nm. Because H2O2 is a secondary product of O2.^−, DCFH fluorescence has been used to implicate O2.^− production. The direct reaction of DHE with O2.^− yields a very specific fluorescent product, requiring no conversion to H2O2. The product of the DHE reaction with O2.^− fluoresces strongly at around 600 nm when excited at 500-530 nm.
Tested pairs of the probes were as follows: CD-5 with DCFDA or DHE, and CD-1 with DHE. A hypoxic state was induced in the cells as described in Example 7. Control slides were singly-stained with hypoxia or ROS-detecting probes only. Additional slides were treated with different general and specific ROS inducers and stained with ROS-detecting probes to control ROS staining. Post-treatment, the slides were washed twice with PBS, coverslipped and visualized using an Olympus BX-51 fluorescence microscope and a DAPI filter set (350 ex/470em) for CD-5, an FITC filter set (490ex/525em) for CD-1 or for total ROS detection reagent, and an orange filter set (550ex/620em) for HE.

[1] = Chemical assay: reduction of probe by sodium hydrosulfite, fluorescence; conditions: PBS pH 7.4, room temperature, over a 60 minute period
Method: A solution of probe CD-6 in DMSO (0.1-1.0 μl) was added to 90 μl of PBS buffer (10 mM, pH 7.4). After mixing, 10 μl of 100 mM aqueous sodium hydrosulfite was added. The reaction mixture was incubated at room temperature for amount of time ranging from 1 minute to 6 hours. As a control, 10 μl of water instead of sodium hydrosulfite was used.

Jurkat cells [2] = assay: Detection of hypoxia using flow cytometry; format: cell-based, human; conditions: 5 μM CD-1, 1 μM CD-6, versus vehicle-treated loaded cells
Method: HeLa and U-2 OS cells were cultured as described in Example 7. Human Jurkat T-cell leukemia cells (the A3 subclone) was obtained from ATCC and routinely cultured in RPMI-1640 medium (ATCC) supplemented with 10% fetal bovine serum (ATCC) and 100 U/ml penicillin+100 μg/ml streptomycin (Sigma-Aldrich). Cell cultures were maintained in an incubator at 37° C., with 5% CO2 atmosphere. CD-1, CD-4 and CD-6 self-immolative hypoxia probes were prepared as described in Example 8. All hypoxia inducers stocks were prepared as described in Example 7.
The day before the experiment, HeLa and U-2 OS cells were seeded in 6-well tissue culture plates at a density 5×10^5 cells/well. […] Post-treatment, the adherent cells (HeLa and U-2 OS) were collected by trypsinization, re-suspended in 0.5 mL of fresh PBS and analyzed using flow cytometry. Jurkat cells were analyzed without washing.
Flow cytometry experiments were performed using a FACS Calibur benchtop flow cytometer (BD Biosciences) equipped with a blue (488 nm) laser, and the fluorescence was recorded in the FITC (530/30 filter), PE (585/42 filter) and PerCP (670 LP filter) channels. Hypoxic cells were detected by detecting increases in fluorescence. The degree of hypoxia (Khyp) can be quantified by using Kolmogorov-Smirnov statistics (Young, 1977) or the following formula: Khyp=(MFIhyp−MFIcon)/MFIhyp, […]

Jurkat cells [3] = assay: Combined detection of hypoxia and superoxide in live cells by flow cytometry; format: cell-based, human
Method: HeLa, U-2 OS, and Jurkat cell lines were cultured as described in Examples 7 and 9. Stock solutions of the probes and inhibitors were prepared as described in Examples 7 and 10.
The day before the experiment, HeLa and U-2 OS cells were seeded in 6-well tissue culture plates at a density of 5×10^5 cells/well. Jurkat cells were collected in logarithmic phase of growth and aliquoted at a density of 5×10^5 cells/sample. On the day of the experiment, the cells were preloaded with either hypoxia or ROS-detecting probes only or with the combination of hypoxia and ROS-detecting probes with compatible spectral characteristics. Samples stained with single hypoxia probes or with two ROS-detecting probes were made to validate data obtained with the combination of hypoxia and redox probes. The probes used in the experiment and their final concentrations in cell culture medium were as follows: CD-1(5 μM) and CD-6 (1 μM), DCFDA, peroxide/peroxynitrite/hydroxyl detection probe and HE, specific superoxide detection reagent (1 μM for both redox probes). Hypoxia was induced in the cells as described in Example 7. Additionally, cells were treated with different general and specific ROS inducers and stained with ROS-detecting probes to control ROS production and staining. Post-treatment, the adherent cells (HeLa and U-2 OS) were collected by trypsinization, re-suspended in 0.5 mL of fresh PBS and analyzed using flow cytometry. Jurkat cells were analyzed without washing. Flow cytometry experiments were performed using an FACS Calibur benchtop flow cytometer (BD Biosciences) equipped with a blue (488 nm) laser, and the fluorescence was recorded in the FITC (530/30 filter), PE (585/42 filter) and PerCP (670 LP filter) channels. Data were collected uncompensated, also compensation corrections were performed using unstained cells, and cells stained with each single dye separately (CD-1, CD-6, DCFDA or HE). To quantify data, quadrant gates were set using untreated samples.

[4] = system: mammalian single-electron reductases; conditions: cited from earlier work
[5] = system: bacterial nitroreductases; conditions: cited from earlier work

## O=C(Nc1ccc2c(c1)Oc1cc(NC(=O)N3CCOCC3)ccc1C21OC(=O)c2ccccc21)OCc1ccccc1 (centres unmarked) [CD-3]
Hypoxic HeLa cells
  fluorescence signal in hypoxic HeLa cells: did not yield any fluorescent signal

## O=C(Nc1ccc2c(C(F)(F)F)cc(=O)oc2c1)OCc1ccc([N+](=O)[O-])cc1 [CD-5]
HeLa cells; 5 μM, all four hypoxic samples (anoxia, CoCl2, DFO, DMOG)
  hypoxia probe fluorescent signal in hypoxic HeLa cells, multiplexed with ROS dyes: bright fluorescent signal

## O=C(Nc1ccc2c(c1)Oc1c(cc3c4c1CCCN4CCC3)C21OC(=O)c2ccccc21)OCc1ccc([N+](=O)[O-])cc1 (centres unmarked) [CD-6]
[1]
  fluorescence after combining with sodium hydrosulfite: increasing fluorescence
Jurkat cells [2]
  fluorescence in Jurkat cells treated with chemical hypoxia inducers or subjected to anoxia: fluorescence increase
Jurkat cells [3]; CD-6 1 μM with DCFDA or HE dyes or alone, flow cytometry
  detection of hypoxic cell populations: able to detect hypoxic cell populations

## O=c1c(Cl)c2oc3cc([N+](=O)[O-])ccc3nc-2c2ccccc12 [CNOB, 6-Chloro-9-nitro-5-oxo-5H-benzo[a]phenoxazine]
[4]
  substrate for mammalian nitroreductases: apparently not a substrate
[5]
  substrate for bacterial nitroreductases: good substrate

## [Cl][Co][Cl] [CoCl2, cobalt chloride]
HeLa cells
  superoxide production (superoxide detection reagent staining) in treated HeLa cells: only moderate staining
Jurkat cells [3]; Jurkat cells, compared to the untreated cells
  superoxide production: population of orange positive cells: about 20%

## CC(=O)N(O)CCCCCNC(=O)CCC(=O)N(O)CCCCCNC(=O)CCC(=O)N(O)CCCCCN [DFO, desferrioxamine]
HeLa cells
  superoxide production (superoxide detection reagent staining) in treated HeLa cells: Abundant superoxide production

## COC(=O)CNC(=O)C(=O)OC [DMOG, dimethyloxalylglycine, N-[Methoxyoxoacetyl]glycine methyl ester]
HeLa cells
  superoxide production (superoxide detection reagent staining) in treated HeLa cells: Abundant superoxide production
HeLa cells; DCFDA staining
  peroxides/peroxynitrite formation in treated HeLa cells: detected in DMOG-treated cells only

## Cn1c2cccc(=O)c-2nc2ccccc21 [Pyocyanin, pyocyanin]
Jurkat cells [3]; Jurkat cells stained with CD-1, pyocyanin-treated
  hypoxia state: positive green cells: about 10%
Jurkat cells [3]; positive control for ROS production
  superoxide production in treated Jurkat cells: high superoxide production
